Source: US6284789A, “Formation and composition of new optically active compounds” (The Research Foundation of State University of New York, priority 1999, dated 2001)
Where two headings read alike, the source gives them in different places.

What was measured:
[1] = test system: standard panel of 12 human tumor cell lines; assay: Hollow fiber assay, preliminary in vivo testing; parameters: species or system human tumor cell lines in mice; conditions: i.p. injection once daily, 4 doses, 2 dose levels
Description: Preliminary in vivo testing was conducted by the hollow fiber assay on the oxabicyclooctane and the dioxatricyclodecanes identified as sufficiently active in the large scale in vitro cell screens. Each compound is tested against a standard panel of 12 human tumor cell lines, including NCI-H23, […], MDA-MB-231, MDA-MB-435, SW-620, COLO 205, LOX IMVI, UACC-62, OVCAR-3, OVCAR-5, U251, and SF-295. The cell lines are cultivated in RPMI-1640 containing 10% FBS and 2 mM glutamine. On the day preceding hollow fiber preparation, the cells are given a supplementation of fresh medium to maintain log phase growth. […] On the day of implantation, samples of each tumor cell line is quantitated for viable cell mass by a stable endpoint MTT assay so that the time 0 cell mass is known. Thus, the cytostatic and cytocidal capacities of the test compound can be assessed. […] Each agent is assessed by intraperitoneal injection at 2 dose levels with 3 mice/dose/experiment. […] The optical density of each sample is determined spectropphotomnetrically at 540 nm and the mean of each treatment group is calculated. The percent net cell growth in each treatment group is calculated and compared to the percent net cell growth in the vehicle treated controls. Each compound is assessed in a total of 4 experiments (3 cell lines/experiment×4 experiments=12 cell lines). […]

antitumor activity = conditions: background; cited from earlier work
[2] = test system: 60 human tumor cell line screen; assay: NCI 60 human tumor cell line screen, in vitro antiproliferative activity (sulforhodamine B assay); assay type: cell-based; conditions: for Percentage of cell lines affected at the given concentration: at the GI50 bound or range given on the same line of Table 3
Description: The NCI […] Screening Procedure is described in Monks et al., J. Natl. Cancer Inst., 83: […], as are the origins and processing of the cell lines. In summary, cell suspensions that are diluted according to the particular cell type and the expected target cell density (5000-40,000 cells per well based on cell growth characteristics) are added by pipet (100 μL) into 96-well microtiter plates. Inoculates are allowed a preincubation period of 24 hours at 37° C. for stabilization. Dilutions at twice the intended test concentration were added at time zero in 100 μL aliquots to the microtiter plate wells. Usually, test compounds are evaluated at five 10-fold dilutions. In routine testing, the highest well concentration is 10^-4 M, but for the standard agents the highest well concentration used depends on the agent. Incubations last for 48 hours in 5% CO2 atmosphere and 100% relative humidity. The cells are assayed by using the sulforhodamine B assay. A plate reader is used to read the optical densities, and a microcomputer processes the optical densities into the special concentration parameters.

[3] = test system: leukemias and solid tumors; conditions: background; cited from earlier work
tolpoisomerase II = conditions: increased single and double strand breaks in DNA, background; cited from earlier work
[4] = test system: tubulin / microtubule assembly; conditions: background; cited from earlier work
[5] = background; cited from earlier work
[6] = test system: nucleoside transport in mammalian cells; conditions: background; cited from earlier work
antiviral activity = conditions: background; cited from earlier work
cell division = conditions: background; cited from earlier work

COc1cc([C@]23OC[C@H](Cc4cc5c(cc42)OCO5)[C@@H]3CO)cc(OC)c1OC [oxabicyclooctane]
Intraperitoneal score, hollow fiber assay ([1]; i.p. fiber implants): 14
Subcutaneous score, hollow fiber assay ([1]; s.c. fiber implants): 2

COc1cc([C@H]2c3cc(O)c(OC)cc3C[C@@H]3C(=O)OC[C@H]23)ccc1O [BCON, β-conidendrin]
Antitumor / biological activity (antitumor activity): biologically inactive

7-acetoxy-6-methoxytetralin-1-one [compound 87]
Percentage of cell lines affected at the given concentration [2]: 93%

COc1cc([C@H]2c3cc(O)c(OC)cc3C[C@H]3C(=O)OC[C@H]23)ccc1O [ACON, α-Conidendrin]
Antitumor / biological activity (antitumor activity): biologically inactive

COc1ccc([C@]23OC[C@H](Cc4cc(OC)c(OC)cc42)[C@@H]3CO)cc1OC [No. 5]
GI50 ([2]; 60 human tumor cell lines, 48 h, for the percentage of cell lines given beside it, read-out: GI50 (growth inhibition, 50%), GL50 [sic] in the source): > 100 µM
Percentage of cell lines affected at the given concentration [2]: 96%

COc1cc([C@@H]2c3cc4c(cc3[C@@H](O[C@@H]3O[C@@H]5CO[C@@H](C)O[C@H]5[C@H](O)[C@H]3O)[C@H]3COC(=O)[C@H]23)OCO4)cc(OC)c1O [etoposide]
Effectiveness in the treatment of leukemias and solid tumors [3]: effective in the treatment of a variety of leukemias and solid tumors
Interaction and inhibition of topoisomerase II (tolpoisomerase II): interaction and inhibition of the enzyme tolpoisomerase II
Inhibition of microtubule assembly [4]: not inhibitors of microtubule assembly

COc1cc([C@@H]2c3cc4c(cc3[C@H](O)[C@H]3COC(=O)[C@H]23)OCO4)cc(OC)c1OC [PT, podophyllotoxin]
Antitumor / biological activity (antitumor activity): has antiviral and antitumor activity
Toxicity [5]: highly toxic
Inhibition of nucleoside transport [6]: inhibit nucleoside transport in mammalian cells
Antiviral activity (antiviral activity): has antiviral and antitumor activity
Arrest of cell division (cell division): arrest of cell division at the mitotic stage of the cell cycle
Inhibition of microtubule assembly [4]: inhibiting the assembly of tubulin into microtubules

COc1cc([C@@H]2c3cc4c(cc3[C@H](O)[C@H]3COC(=O)[C@@H]23)OCO4)cc(OC)c1OC (stereo in doubt) [picropodophyllotoxin]
Antitumor / biological activity (antitumor activity): biologically inactive

COc1cc([C@]23OC[C@H](Cc4cc5c(cc42)OCO5)[C@@H]3CO)cc(OC)c1OC [No. 2]
Percentage of cell lines with the GI50 range ([2]; GI50 ranging from less than 10^-8 to 10^-5 molar): 26%
GI50 ([2]; observed for 26% of cell lines, read-out: GI50 range observed): 0.01 to 10 µM

COc1cc([C@@H]2c3cc4c(cc3[C@@H](O[C@@H]3O[C@@H]5CO[C@@H](c6cccs6)O[C@H]5[C@H](O)[C@H]3O)[C@H]3COC(=O)[C@H]23)OCO4)cc(OC)c1O [teniposide]
Effectiveness in the treatment of leukemias and solid tumors [3]: effective in the treatment of a variety of leukemias and solid tumors
Interaction and inhibition of topoisomerase II (tolpoisomerase II): interaction and inhibition of the enzyme tolpoisomerase II
Inhibition of microtubule assembly [4]: not inhibitors of microtubule assembly

COc1ccc([C@]23OC[C@H](Cc4cc(OC)c(OC)cc42)[C@@H]3COC(C)=O)cc1OC [No. 6]
Percentage of cell lines affected at the given concentration [2]: 10%
